Paper PMC10568017, “A quest for the stereo-electronic requirements for selective agonism for the neurotrophin receptors TrkA and TrkB in 17-spirocyclic-dehydroepiandrosterone derivatives” (Frontiers in Molecular Neuroscience, 2023)
Entries after “also recorded” stand apart in the source; their conditions may differ.

Experiments:
[1] = system: PC12 cells; assay: CellTox assay, survival of PC12 cells under serum deprivation; format: cell-based; details: for protection of PC12 cells from serum deprivation-induced cell death (CellTox): compound 500 nM, 24 h, after 4 h serum starvation, NGF 100 ng/mL as control (Figure 9); for protection of PC12 cells from serum deprivation-induced death (CellTox): compound 1 μM, NGF 100 ng/mL as control (Figure 10)
Method: PC12 cells were obtained from LGC Promochem and cultured under specified conditions. Cells were grown in DMEM medium (Thermo Fischer Scientific, cat# 10566016) containing 10% horse serum (Thermo Fischer Scientific, cat# 16050122), 5% fetal bovine serum (Thermo Fischer Scientific, cat# 10270106), 100 units/mL penicillin, and 0.1 mg/mL streptomycin (Thermo Fischer Scientific, cat# 15140122) at 5% CO2 and 37°C. Cells were used between passages 5 and 20.
CellTox assay (G8742, Promega, Leiden, Belgium) was used to assess the survival of PC12 cells under serum deprivation conditions. PC12 cells were plated in 96-well plates, starved from serum for 4 h, and subsequently treated with NGF (100 ng/mL) or compound (500 nM) for 24 h. CellTox assay reagents and Hoescht (1:10,000, H3570, Invitrogen, Massachusetts, USA) were then added to each well for 30 min, and then, cells were imaged with a Zeiss AXIO Vert A1 fluorescent microscope. CellTox positive cells were normalized to the total number of cells for each image.
Initially, we tested compounds ENT-A002, ENT-A007, ENT-A009, ENTA025, ENT-A026, ENT-A033, ENT-A034, ENT-A035, ENT-A036, ENT-A037, ENT-A046, ENT-A047, ENT-A055, and ENT-A056 for their ability to protect PC12 cells from serum deprivation-induced cell death as well as for their ability to activate TrkA downstream pro-survival signaling kinases Akt and Erk1/2 (Figures 9A–C). We opted to employ PC12 cells, which express receptors TrkA and p75 and have been routinely used for investigating NGF-TrkA signaling. PC12 cells were subjected to a period of nutrient deprivation (without fetal bovine serum and horse serum in their culture medium) for 4 h. Following this, NGF (100 ng/mL) or one of the compounds (500 nM or 1 μM) was administered and allowed to interact with the cells for 24 h. Following that, CellTox and Hoescht dyes were added and cells were imaged to assess cell death. Control cases involved cells cultured in full medium (serum), cells under starvation conditions (serum-free), and cells under starvation conditions treated with DMSO (SF+DMSO).

[2] = system: NIH-3T3 TrkB-expressing cell line; assay: CellTox Green cytotoxicity assay in NIH-3T3 cells stable transfected with TrkB under serum deprivation; format: cell-based; details: compound 1 μM, 24 h, after 24 h serum starvation; BDNF 500 ng/mL as control
Method: We tested compounds on three cellular systems, primary cortical astrocytes from 2-day-old mice (as a natively TrkB-expressing neuronal population), and NIH-3T3 fibroblasts stable transfected with TrkB and NIH-3T3 naïve cells. Cells were grown with high-glucose DMEM medium supplemented with 10% fetal bovine serum (FBS), 100 μg/mL streptomycin, and 100 units/mL penicillin at 37°C in a humidified 5% CO2 atmosphere. Phosphorylation results presented here are in primary astrocytes, and cell toxicity assay results are in NIH-3T3 stable transfected cells with TrkB.
NIH-3T3 stable transfected cells with TrkB were plated in 96-well plates at a density of 10,000 cells/well, before carrying out serum starvation for 24 h. Cells were then treated for 24 h with either BDNF at 500 ng/mL (control) or the compounds at 1 μM.
For the cell toxicity assay, we used CellTox™ Green Dye (2,000 × , Promega) for the visualization of dead cells and Hoechst 33,342 solution (10,000 × ) for total cells. A ZEISS Axio Vert.A1 microscope was used for image capture, and the ImageJ software (https://imagej.nih.gov/ij/) was used for analysis. The number of CellTox positive cells was normalized against the total number of cells observed in each image.
The NIH-3T3 TrkB cell line, which is stable and transfected to specifically express the TrkB receptor, was used for the screening of the new compounds for their ability to protect cells from serum deprivation-induced apoptosis through the activation of the TrkB receptor. Cell death was induced by serum deprivation for 24 h and then BDNF (500 ng/mL), the native neurotrophin ligand of the TrkB receptor, or compounds ENT-A007, ENT-A009, ENTA025, ENT-A026, ENT-A033, ENT-A034, ENT-A035, ENT-A036, ENT-A037, ENT-A046, ENT-A047, ENT-A055, and ENT-A056 (1 μM) were added to the media for 24 h.

[3] = Metabolic stability in pooled human liver microsomes; format: in vitro ADME; details: 1 μM; for residual of time zero: pooled human liver microsomes 0.5 mg/mL, t = 60 min, NADPH; for parent structure loss (depletion) class: pooled human liver microsomes, 60 min
Method: For metabolic stability assessment, pooled human liver microsomes were employed at 0.5 mg/mL. Incubation conditions were optimized to ensure linear metabolite formation with respect to protein concentration and reaction time. All test compounds were assessed at 1 μM based on our ADMET standard operating procedures and protocols, also published previously (1 μM was selected based on our ADMET standard operating procedures and protocols also published previously) (Rogdakis et al., [2022]; Yilmaz et al., [2022]). Approximately 1 mM of NADPH served as a cofactor. Reactions took place in triplicates at 37°C. Negative and positive controls (low vs. rapid clearance) were included for low vs. rapid clearance. After 60 min, reactions were terminated.
Parent structure loss is classified as very slow (<5%), slow (5–19%), moderate (20–50%), fast (50–80%), or very fast (>80%). Such categories have been defined according to set criteria, namely, high metabolism (t1/2 value of <30 min), moderate metabolism (30 min <t1/2 value of <60 min), and low metabolism (t1/2 value of >60 min) (EMA, [2012], [2013]; FDA, [2020]).

Row | SMILES | protection of PC12 cells from serum deprivation-induced cell death (CellTox) [1] | protection of NIH-3T3-TrkB cells from serum deprivation-induced cell death (CellTox) [2] | protection of PC12 cells from serum deprivation-induced death (CellTox) [1] | also measured
1 | C[C@]12CC[C@H](O)CC1=CC[C@@H]1[C@@H]2CC[C@@]2(C)[C@H]1CC[C@@]21CC=CCO1 [ENT-A002, (3S,17R)-3′,6′-dihydrospiro[5-androstene-17,2′-pyran]-3-ol] | did not show any protective effects | did not show any protective effects | – | –
2 | C[C@]12CC[C@H](O)CC1=CC[C@@H]1[C@@H]2CC[C@@]2(C)[C@H]1CC[C@@]21CC=C(CO)CO1 [ENT-A008] | none of these compounds provided any protective effects | none of these compounds provided any protective effects | – | –
3 | COC(=O)CSCC1=CCC2(CCC3C4CC=C5CC(O)CCC5(C)C4CCC32C)OC1 [ENT-A026, Methyl (3S,17R)-3-hydroxy-3’,6’-dihydrospiro[5-androstene-17,2’-pyran]-5’-yl-methylthio acetate] | none of these compounds provided any protective effects | none of these compounds provided any protective effects | – | –
4 | CC12CCC(O)CC1=CCC1C2CCC2(C)C1CCC21CC=C(CC#N)CO1 [ENT-A033, (3S,17R)-3-hydroxy-3′,6′-dihydrospiro[5-androstene-17,2′-pyran]-5′-yl-acetonitrile] | none of these compounds provided any protective effects | none of these compounds provided any protective effects | – | –
5 | C[C@]12CC[C@H](O)CC1=CC[C@@H]1[C@@H]2CC[C@@]2(C)[C@H]1CC[C@@]21CC=C(CF)CO1 [ENT-A034] | none of these compounds provided any protective effects | none of these compounds provided any protective effects | – | –
6 | COc1ccc(COCC2=CC[C@@]3(CC[C@H]4[C@@H]5CC=C6C[C@@H](O)CC[C@]6(C)[C@H]5CC[C@@]43C)OC2)cc1 [ENT-A035] | none of these compounds provided any protective effects | none of these compounds provided any protective effects | – | –
7 | C[C@]12CC[C@H](O)CC1=CC[C@@H]1[C@@H]2CC[C@@]2(C)[C@H]1CC[C@@]21CC=C(Cn2cc(CO)nn2)CO1 [ENT-A037, (3S,17R)-5′-[(4-(hydroxymethyl)-1H-1,2,3-triazol-1-yl)methyl]-3′,6′-dihydrospiro[5-androstene-17,2′-pyran]-3-ol] | – | – | – | melting point: 202 to 204 °C
8 | C[C@]12CC[C@H](O)CC1=CC[C@@H]1[C@@H]2CC[C@@]2(C)[C@H]1CC[C@@]21CC=C(Cn2cc(CC3CCCCC3)nn2)CO1 [ENT-A047, (3S,17R)-5′-[(4-(cyclohexylmethyl)-1H-1,2,3-triazol-1-yl)methyl]-3′,6′-dihydrospiro[5-androstene-17,2′-pyran]-3-ol] | – | – | – | melting point: 181 °C (dec.)
9 | CC12CCC(O)CC1=CCC1C2CCC2(C)C1CCC21CC=C(C=C2CCC2)CO1 [ENT-A065, (3S,17R)-5′-(cyclobutylidenemethyl)-3′,6′-dihydrospiro[5-androstene-17,2′-pyran]-3-ol] | – | – | promote cell survival as well as NGF does under stress conditions | –
10 | CC12CCC(O)CC1=CCC1C2CCC2(C)C1CCC21CC=C(C=CBr)CO1 [ENT-A066, (3S,17R)-5′-(2-bromovinyl)-3′,6′-dihydrospiro[5-androstene-17,2′-pyran]-3-ol] | – | – | found to promote PC12 cell survival during stress conditions; also recorded: promote cell survival as well as NGF does under stress conditions | residual of time zero [3]: > 95%; parent structure loss (depletion) class [3]: very slow (very slow (<5%))
11 | CC=CC1=CCC2(CCC3C4CC=C5CC(O)CCC5(C)C4CCC32C)OC1 [ENT-A068, (E, Z) (3S,17R)-5′-(prop-1-en-1-yl)-3′,6′-dihydrospiro[5-androstene-17,2′-pyran]-3-ol] | – | – | found to promote PC12 cell survival during stress conditions; also recorded: promote cell survival as well as NGF does under stress conditions | –
12 | CCC1CCC2(CCC3C4CC=C5CC(O)CCC5(C)C4CCC32C)OC1 [ENT-A069, (3S,17R)-5′-(ethyl)-3′,6′-tetrahydrospiro[5-androstene-17,2′-pyran]-3-ol] | – | – | found to promote PC12 cell survival during stress conditions; also recorded: promote cell survival as well as NGF does under stress conditions | residual of time zero [3]: 95%; parent structure loss (depletion) class [3]: slow (slow (5–19%))
13 | CCC1=CCC2(CCC3C4CC=C5CC(O)CCC5(C)C4CCC32C)OC1 [ENT-A070, (3S,17R)-5′-ethyl-3′,6′-dihydrospiro[5-androstene-17,2′-pyran]-3-ol] | – | – | found to promote PC12 cell survival during stress conditions; also recorded: promote cell survival as well as NGF does under stress conditions | residual of time zero [3]: > 95%; parent structure loss (depletion) class [3]: very slow (very slow (<5%))
14 | C[C@]12CC[C@H](O)CC1=CC[C@@H]1[C@@H]2CC[C@@]2(C)[C@H]1CCC21CC(=CC#N)C1 (stereo partly drawn) [ENT-A077] | – | – | – | melting point: 161 to 163 °C
15 | C[C@]12CC[C@H](O)CC1=CC[C@@H]1[C@@H]2CC[C@@]2(C)[C@H]1CCC21CC(=CC(=O)O)C1 (stereo partly drawn) [ENT-A080] | – | – | – | melting point: 221 °C (dec.)
